Data as given in patent US20130287688A1, “NOVEL COMPOSITIONS AND USES OF ANTI-HYPERTENSION AGENTS FOR CANCER THERAPY” (XTUIT PHARMACEUTICALS, INC., priority 2010, published 2013).

Assays:
HSTS26T tumors [1] = experiment: Second harmonic generation (SHG) imaging of fibrillar collagen in dorsal skin fold chamber tumors; assay type: in vivo, SCID mice; conditions: for decrease in SHG levels (collagen): end of 15 days
Protocol: Cozaar (losartan potassium) tablets were ground using a mortar and pestle. The powder was then dissolved in water to obtain a concentration of 2.5 mg/ml. The solution was then filtered and stored in a sterile container.
Second Harmonic Imaging (SHG) imaging was performed in dorsal chamber tumors with a custom-built multiphoton laser-scanning microscope (Brown E, et al. (2003) Nat Med 9:796-800). Polarized light from a Ti:Sapphire laser (Mai-Tai Broadband: Spectra-Physics, Mountain View, Calif.) was converted to circularly polarized light using a zero order quarter wave plate (Newport Corporation, Irvine, Calif.). An excitation wavelength of 810 nm and detected SHG signals at 405 nm was used. SCID mice bearing HSTS26T tumors in dorsal chambers were either treated with losartan (10, 20 or 60 mg/kg/day) or saline for the duration of the dose response experiment (15 days). Vascular markers were used to locate 4 regions of interest in each mouse and periodically returned to the same region of SHG imaging. SHG images were analyzed with a custom-built Matlab (The MathWorks, Inc., Natick, Mass.) code. The fraction of the region of interest (ROI) that was positive for the SHG signal was normalized to the amount of SHG signal obtained on day 1 of the dose response study (before initiation of losartan or saline treatment).

HSTS26T tumors [2] = experiment: IgG diffusion by fluorescence recovery after photobleaching (FRAP); assay type: in vivo, SCID mice
Protocol: FIG. 9 is a bar graph showing the changes in diffusion coefficient in HSTS26T tumors after losartan treatment. The diffusion coefficient of IgG was measured in HSTS26T tumors implanted in the dorsal window chamber of SCID mice. Treated animals received (40 mg/kg/day) losartan by i.p. injection while control animals received saline.
Based on the previous studies on the tumor interstitial matrix (Pluen A, et al. (2001) Proc Natl Acad Sci USA 98:4628-4633 and Brown E, et al. (2003) Nat Med 9:796-800), the inventors then sought to determine if a decrease in collagen content by Losartan can improve the intratumoral distribution of nanoparticles. The inventors therefore measured the intratumoral distribution of fluorescent polystyrene nanoparticles (100 nm diameter) in three different tumor types—HSTS26T, Mu89, and L3.6 pl—after an i.t. or i.v. injection. […] The inventors also determined the effects of losartan on the intratumoral distribution of oncolytic HSV.
Mice with HSTS26T tumors implanted in a dorsal skin fold chamber were treated with i.p. injections of losartan (40 mg/kg/day) for 1 week. Fluorescence recovery after photobleaching (FRAP) measurements were done with a custom built multiphoton microscope based on a previously described protocol (Chauhan V P, et al. (2009) Biophys J 97:330-336). […] Matrix pore sizes were calculated using the SFA-FRAP data, using the equation […]

E0771 breast tumors = experiment: Breast tumor growth and survival studies; assay type: in vivo, mice
Protocol: Breast tumor growth and survival studies: Mice bearing orthotopic E0771 or 4T1 breast tumors were split into treatment groups, time-matched for time after implantation and size-matched for tumor volume at this time (110-111 mm^3 in E0771, in 4T1). […] The primary tumors were then measured every 2 days, beginning on day 0, using calipers. Tumor growth was quantified using the time for each to reach double its initial volume Animal survival was quantified based on time of death after initiation of treatment or time to reach excessive tumor burden (>1000 mm^3).

CCCCc1nc(Cl)c(CO)n1Cc1ccc(-c2ccccc2-c2nn[nH]n2)cc1 [losartan]
intratumoral SHG signal intensity (HSTS26T tumors [1]; 10 mg/kg/day i.p.): did not have a significant effect
decrease in SHG levels (collagen) (HSTS26T tumors [1]; 10 mg/kg/day i.p.): 20%
intratumoral SHG signal intensity (HSTS26T tumors [1]; 20 mg/kg/day i.p.): significantly reduced
decrease in SHG levels (collagen) (HSTS26T tumors [1]; 20 mg/kg/day i.p.): 33%
intratumoral SHG signal intensity (HSTS26T tumors [1]; 60 mg/kg/day i.p.): significantly reduced
decrease in SHG levels (collagen) (HSTS26T tumors [1]; 60 mg/kg/day i.p.): 67%
diffusion coefficient of IgG (HSTS26T tumors [2]; 40 mg/kg/day i.p., multiphoton FRAP): significant increase
mean interstitial matrix pore radius (HSTS26T tumors [2]; calculated from IgG diffusion data, control 9.91±0.43 nm): 11.78±0.41 nm
tumor growth rate (E0771 breast tumors; agent given alone (losartan 40 mg/kg daily or doxorubicin 2 mg/kg every three days)): no significant effect
median survival (E0771 breast tumors; combination of losartan and doxorubicin, saline alone 12 days): 23.5 days
survival (E0771 breast tumors; losartan alone): did not shorten survival
tumor growth (E0771 breast tumors; losartan in combination with doxorubicin): significantly delayed
